Test results taken from US12281119B2, “Imidazo[2,1-f][1,2,4]triazin-4-amine derivatives as TLR7 agonist” (BEIGENE, LTD., priority 2019, dated 2025).

Tests used:
human TLR 8 protein = target: T1, human TLR 8 protein (Homo sapiens, UniProt Q9NR97); assay: TLR8 stimulation determined using HEK-Blue Detection; type: cell-based; settings: HEK-Blue hTLR8 cells, 16 hr, relative to Resiquimod or Motolimod maximum
T1 construct: expressed in transfected cells; host or cells: HEK293 (HEK-Blue hTLR8)
T1 sequence (Q9NR97 27-1041): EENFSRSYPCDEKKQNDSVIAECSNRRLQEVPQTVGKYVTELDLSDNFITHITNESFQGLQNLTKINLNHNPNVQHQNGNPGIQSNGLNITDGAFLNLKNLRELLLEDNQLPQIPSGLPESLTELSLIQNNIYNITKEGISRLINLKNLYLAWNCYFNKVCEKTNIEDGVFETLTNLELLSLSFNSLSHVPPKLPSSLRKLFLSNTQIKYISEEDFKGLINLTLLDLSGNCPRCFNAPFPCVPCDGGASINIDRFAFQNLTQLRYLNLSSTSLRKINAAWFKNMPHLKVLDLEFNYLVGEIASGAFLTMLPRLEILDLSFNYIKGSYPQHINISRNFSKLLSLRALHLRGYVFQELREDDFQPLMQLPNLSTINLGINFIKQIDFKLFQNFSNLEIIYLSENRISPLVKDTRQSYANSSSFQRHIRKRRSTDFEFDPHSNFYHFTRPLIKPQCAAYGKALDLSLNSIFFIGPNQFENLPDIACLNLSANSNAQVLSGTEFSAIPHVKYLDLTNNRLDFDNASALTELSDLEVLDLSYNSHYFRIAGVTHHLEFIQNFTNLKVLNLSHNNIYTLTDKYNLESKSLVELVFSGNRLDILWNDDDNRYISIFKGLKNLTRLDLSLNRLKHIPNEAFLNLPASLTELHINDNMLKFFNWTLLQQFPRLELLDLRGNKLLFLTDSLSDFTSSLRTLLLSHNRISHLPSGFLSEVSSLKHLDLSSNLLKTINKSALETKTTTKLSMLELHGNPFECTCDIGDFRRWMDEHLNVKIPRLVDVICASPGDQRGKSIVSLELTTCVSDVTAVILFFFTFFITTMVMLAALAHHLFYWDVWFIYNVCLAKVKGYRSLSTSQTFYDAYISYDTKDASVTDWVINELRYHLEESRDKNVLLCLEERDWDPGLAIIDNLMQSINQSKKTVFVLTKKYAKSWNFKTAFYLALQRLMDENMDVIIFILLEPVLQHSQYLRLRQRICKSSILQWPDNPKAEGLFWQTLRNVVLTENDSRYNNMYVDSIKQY
Outline: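 HEK-Blue hTLR8 cells with NF-κB/AP-1-driven SEAP reporter, 40000 cells/well, treated with 10-point dilutions (1 nM-10 uM final, 0.1% DMSO) for 16 hr at 37° C. SEAP read as OD 620-655 nm. EC50 derived from percent of maximum activation set by Resiquimod or Motolimod.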

human TLR7 = target: T2, human TLR7 (Homo sapiens, UniProt Q9NYK1); assay: TLR7 stimulation determined using HEK-Blue Detection; type: cell-based; design: expressed in transfected cells; host or cells: HEK293 (HEK-Blue hTLR7); settings: HEK-Blue hTLR7 cells, HEK-Blue Detection (A77-A124), 16 hr, relative to Resiquimod maximum
T2 sequence (Q9NYK1 27-1049): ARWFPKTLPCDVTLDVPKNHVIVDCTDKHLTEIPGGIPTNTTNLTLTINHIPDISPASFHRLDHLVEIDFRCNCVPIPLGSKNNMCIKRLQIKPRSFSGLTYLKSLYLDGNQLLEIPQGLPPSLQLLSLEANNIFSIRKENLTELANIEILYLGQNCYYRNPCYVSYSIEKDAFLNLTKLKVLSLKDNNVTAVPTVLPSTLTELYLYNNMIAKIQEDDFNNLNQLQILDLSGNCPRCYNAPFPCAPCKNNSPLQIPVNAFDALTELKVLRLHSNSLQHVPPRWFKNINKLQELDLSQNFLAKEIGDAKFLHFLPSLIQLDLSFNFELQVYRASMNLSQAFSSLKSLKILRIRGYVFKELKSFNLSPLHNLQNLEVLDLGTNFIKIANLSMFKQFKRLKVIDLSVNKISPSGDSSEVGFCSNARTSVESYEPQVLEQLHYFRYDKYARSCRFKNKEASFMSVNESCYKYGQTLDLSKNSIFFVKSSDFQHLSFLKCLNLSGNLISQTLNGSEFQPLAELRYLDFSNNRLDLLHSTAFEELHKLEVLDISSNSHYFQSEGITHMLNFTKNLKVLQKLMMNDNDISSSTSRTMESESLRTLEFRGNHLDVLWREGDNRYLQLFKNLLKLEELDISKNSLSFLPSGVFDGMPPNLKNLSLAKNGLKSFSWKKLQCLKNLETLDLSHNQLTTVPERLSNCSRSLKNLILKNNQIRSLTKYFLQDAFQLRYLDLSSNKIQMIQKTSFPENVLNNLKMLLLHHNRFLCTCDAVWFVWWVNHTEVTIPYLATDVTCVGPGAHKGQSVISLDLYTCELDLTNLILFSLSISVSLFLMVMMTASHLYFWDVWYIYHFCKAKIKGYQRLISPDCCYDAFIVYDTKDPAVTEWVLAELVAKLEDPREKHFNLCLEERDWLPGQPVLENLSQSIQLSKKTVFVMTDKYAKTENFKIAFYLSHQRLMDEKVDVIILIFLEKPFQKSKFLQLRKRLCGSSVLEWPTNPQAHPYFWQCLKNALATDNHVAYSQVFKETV
Outline: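 HEK-Blue hTLR7 cells (HEK293 with NF-κB/AP-1-driven SEAP reporter), 40000 cells/well, treated with 10-point dilutions from 0.04 nM to 10 μM final in 0.1% DMSO for 16 h at 37° C. SEAP read as OD 620-655 nm; EC50 derived from % of maximum activation with resiquimod.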

SMILES | EC50 (human TLR 8 protein) [nM] | EC50 (human TLR7) [nM]
CCCC(CCO)Oc1nc(N)c2ncc(Cc3ccc(OCCNC)c(OC)c3)n2n1 (centres unmarked) [Compound A98, 3-((4-amino-7-(3-methoxy-4-(2-(methylamino)ethoxy)benzyl)imidazo[2,1-f][1,2,4]triazin-2-yl)oxy)hexan-1-ol] | 163 | 11
CCC[C@H](C)Oc1nc(N)c2ncc(Cc3ccc(OCCNC)c(F)c3)n2n1 [Compound A99, (S)-7-(3-fluoro-4-(2-(methylamino)ethoxy)benzyl)-2-(pentan-2-yloxy)imidazo[2,1-f][1,2,4]triazin-4-amine] | 129 | 14.4
CCC[C@H](C)Oc1nc(N)c2ncc(Cc3ccc(OCCNC)cc3)n2n1 [Compound A100, (S)-7-(4-(2-(methylamino)ethoxy)benzyl)-2-(pentan-2-yloxy)imidazo[2,1-f][1,2,4]triazin-4-amine] | 195 | 15
CCCC(CCO)Oc1nc(N)c2ncc(Cc3ccc(OCCNC)c(Cl)c3)n2n1 (centres unmarked) [Compound A102, 3-((4-amino-7-(3-chloro-4-(2-(methylamino)ethoxy)benzyl)imidazo[2,1-f][1,2,4]triazin-2-yl)oxy)hexan-1-ol] | 134 | 3.7

Compounds with a lower EC50 (human TLR 8 protein), results first:

EC50 (human TLR 8 protein) [nM] | EC50 (human TLR7) [nM] | SMILES
19 | 8 | CCCC(CCO)Oc1nc(N)c2ncc(Cc3ccc(CCNC)cc3)n2n1 (centres unmarked) [Compound A95, 3-((4-amino-7-(4-(2-(methylamino)ethyl)benzyl)imidazo[2,1-f][1,2,4]triazin-2-yl)oxy)hexan-1-ol]
29 | 4.3 | CCCC(CCO)Oc1nc(N)c2ncc(Cc3ccc(OCCNC)nc3OC)n2n1 (centres unmarked) [Compound A96, 3-((4-amino-7-((2-methoxy-6-(2-(methylamino)ethoxy)pyridin-3-yl)methyl)imidazo[2,1-f][1,2,4]triazin-2-yl)oxy)hexan-1-ol]
10 | 1 | CCCC(CCO)Oc1nc(N)c2ncc(Cc3ccc(OCCNC)cc3F)n2n1 (centres unmarked) [Compound A97, 3-((4-amino-7-(2-fluoro-4-(2-(methylamino)ethoxy)benzyl)imidazo[2,1-f][1,2,4]triazin-2-yl)oxy)hexan-1-ol]
